Source: patent US7524853B2 (Solvay Pharmaceuticals B.V., priority 2003, dated 2009)

Columns and labels:
Format in all cases: cell-based
[1] = biological target: T1, 17β-hydroxysteroid dehydrogenase type 1 (17β-HSD type 1) (Homo sapiens, UniProt P14061); experiment: Inhibition of 17β-HSD type 1 in MCF-7 cells stably expressing the isoenzyme (tritium labeled estrone conversion, HPLC); settings: MCF-7 cells expressing 17β-HSD type 1, 2 nM tritium labeled estrone; for inhibition at 1 µM / inhibition at 10 µM: MCF7; for inhibition at 1 µM: read-out: % Inhibition HSD1 1 μM; for inhibition at 10 µM: read-out: % Inhibition HSD1 10 μM
T1 construct: expressed in transfected cells; host or cells: MCF-7
T1 sequence (P14061 1-328): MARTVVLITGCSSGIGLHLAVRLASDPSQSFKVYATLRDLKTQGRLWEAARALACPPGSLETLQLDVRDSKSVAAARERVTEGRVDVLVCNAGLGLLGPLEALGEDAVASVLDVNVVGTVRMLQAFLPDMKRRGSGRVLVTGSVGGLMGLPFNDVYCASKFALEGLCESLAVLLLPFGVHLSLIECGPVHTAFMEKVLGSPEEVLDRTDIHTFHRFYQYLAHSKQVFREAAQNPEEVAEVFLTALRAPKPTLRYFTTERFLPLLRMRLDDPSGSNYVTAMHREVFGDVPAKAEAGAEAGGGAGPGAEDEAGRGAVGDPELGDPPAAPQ
In short: (§1)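 Cells: stable MCF-7 transfectants per isoenzyme. Step one, add compound (two concentrations) plus 2 nM labelled substrate to growth medium. Step two, remove medium at a set time and stop with trichloroacetic acid. Step three, quantify conversion by HPLC with flow scintillation.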

[2] = biological target: T2, 17β-hydroxysteroid dehydrogenase type 3 (17β-HSD type 3) (Homo sapiens, UniProt P37058); experiment: Inhibition of 17β-HSD type 3 in MCF-7 cells stably expressing the isoenzyme (tritium labeled androstenedione conversion, HPLC); settings: MCF-7 cells expressing 17β-HSD type 3, 2 nM tritium labeled androstenedione; for inhibition at 1 µM / inhibition at 10 µM: MCF7; for inhibition at 1 µM: read-out: % Inhibition HSD3 1 μM; for inhibition at 10 µM: read-out: % Inhibition HSD3 10 μM
T2 construct: expressed in transfected cells; host or cells: MCF-7
T2 sequence (P37058 1-310): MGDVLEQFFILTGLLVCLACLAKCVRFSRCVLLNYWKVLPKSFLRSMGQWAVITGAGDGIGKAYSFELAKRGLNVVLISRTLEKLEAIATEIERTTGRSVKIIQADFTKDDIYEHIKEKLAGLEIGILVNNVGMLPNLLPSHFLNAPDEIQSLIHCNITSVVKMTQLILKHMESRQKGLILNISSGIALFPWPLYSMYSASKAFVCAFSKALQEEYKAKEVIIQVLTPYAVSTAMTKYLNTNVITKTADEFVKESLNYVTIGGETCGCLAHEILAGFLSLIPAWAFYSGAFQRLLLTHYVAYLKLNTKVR
In short: as §1

[3] = biological target: T3, 17β-hydroxysteroid dehydrogenase type 2 (17β-HSD type 2) (Homo sapiens, UniProt P37059); experiment: Inhibition of 17β-HSD type 2 in MCF-7 cells stably expressing the isoenzyme (tritium labeled estradiol conversion, HPLC); settings: MCF-7 cells expressing 17β-HSD type 2, 2 nM tritium labeled estradiol; for inhibition at 1 µM / inhibition at 10 µM: MCF7; for inhibition at 1 µM: read-out: % Inhibition HSD2 1 μM; for inhibition at 10 µM: read-out: % Inhibition HSD2 10 μM
T3 construct: expressed in transfected cells; host or cells: MCF-7
T3 sequence (P37059 1-387): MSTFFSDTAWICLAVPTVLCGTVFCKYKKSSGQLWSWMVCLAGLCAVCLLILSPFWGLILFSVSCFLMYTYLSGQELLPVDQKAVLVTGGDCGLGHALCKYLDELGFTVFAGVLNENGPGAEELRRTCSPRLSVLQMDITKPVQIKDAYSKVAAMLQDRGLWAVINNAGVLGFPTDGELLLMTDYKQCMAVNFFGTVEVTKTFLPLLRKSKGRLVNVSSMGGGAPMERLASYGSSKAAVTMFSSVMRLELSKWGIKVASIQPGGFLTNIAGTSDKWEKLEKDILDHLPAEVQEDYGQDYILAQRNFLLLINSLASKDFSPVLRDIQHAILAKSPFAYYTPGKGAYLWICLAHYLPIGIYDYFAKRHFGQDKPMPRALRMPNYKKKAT
In short: as §1

Row | Structure (SMILES) | inhibition at 1 µM ([1]; 1 μM test compound) [%] | inhibition at 10 µM ([1]; 10 μM test compound) [%] | inhibition at 1 µM ([2]; 1 μM test compound) [%] | inhibition at 10 µM ([2]; 10 μM test compound) [%] | inhibition at 1 µM ([3]; 1 μM test compound) [%] | inhibition at 10 µM ([3]; 10 μM test compound) [%] | % Inhibition HSD1 1 μM ([1]; 1 μM test compound) [%] | % Inhibition HSD1 10 μM ([1]; 10 μM test compound) [%] | % Inhibition HSD3 1 μM ([2]; 1 μM test compound) [%] | % Inhibition HSD3 10 μM ([2]; 10 μM test compound) [%] | % Inhibition HSD2 1 μM ([3]; 1 μM test compound) [%] | % Inhibition HSD2 10 μM ([3]; 10 μM test compound) [%]
1 | COc1cccc(-c2nc3sc4c(c3c(=O)n2Cc2ccccc2)CCCC4=O)c1 [No. 79, 3-Benzyl-2-(m-methoxyphenyl)-6,7-dihydro-3H,5H-benzo[4,5]thieno[2,3-d]pyrimidine-4,8-dione] | 26.6 | 39.1 | 21.9 | 59.7 | 34.4 | 31.6 | – | – | – | – | – | –
2 | CCCc1nc2sc3c(c2c(=O)n1Cc1ccccc1OC)CCCC3 [No. 94, 3-(2-Methoxybenzyl)-2-propyl-5,6,7,8-tetrahydro-3H-benzo[4,5]thieno[2,3-d]pyrimidin-4-one] | 16.5 | 27.2 | 2.2 | 21.1 | 25.7 | 31.5 | – | – | – | – | – | –
3 | CCCCn1c(-c2cc(OC)c(OC)c(OC)c2)nc2sc3c(c2c1=O)CCCC3 [No. 85, 3-Butyl-2-(3,4,5-trimethoxyphenyl)-5,6,7,8-tetrahydro-3H-benzo[4,5]thieno[2,3-d]pyrimidin-4-one] | 24.1 | 40.1 | -2.2 | 24.4 | 21.5 | 25.4 | – | – | – | – | – | –
4 | CCCc1nc2sc3c(c2c(=O)n1Cc1cc(Br)ccc1OC)CCC(Br)(Br)C3=O [No. 97, 7,7-Dibromo-3-(5-bromo-2-methoxybenzyl)-2-propyl-6,7-dihydro-3H,5H-benzo[4,5]thieno[2,3-d]pyrimidine-4,8-dione] | 18.1 | 29.4 | -5.9 | 11.5 | 25.2 | 44.6 | – | – | – | – | – | –
5 | CCCCn1c(-c2cc(OC)c(OC)c(OC)c2)nc2sc3c(c2c1=O)CCC(Br)C3=O (stereo not drawn) [No. 87, 7-Bromo-3-butyl-2-(3,4,5-trimethoxyphenyl)-6,7-dihydro-3H,5H-benzo[4,5]thieno[2,3-d]pyrimidine-4,8-dione] | 26.8 | 67.4 | 13 | 31.9 | 24.6 | 23.4 | – | – | – | – | – | –
6 | O=c1c2c3c(sc2nc(CO)n1Cc1ccccc1)CCCC3 [No. 28, 3-Benzyl-2-hydroxymethyl-5,6,7,8-tetrahydro-3H-benzo[4,5]thieno[2,3-d]pyrimidin-4-one] | 2.6 | 18 | 1.9 | 16.7 | 12.9 | 16.3 | – | – | – | – | – | –
7 | COCCn1c(-c2cccs2)nc2sc3c(c2c1=O)CCCC3 [No. 74, 3-(2-Methoxyethyl)-2-thiophen-2-yl-5,6,7,8-tetrahydro-3H-benzo[4,5]thieno[2,3-d]pyrimidin-4-one] | 11.7 | 12.2 | 8.3 | 8.3 | 33.2 | 26.1 | – | – | – | – | – | –
8 | CCCc1nc2sc3c(O)cccc3c2c(=O)n1Cc1ccc(Br)o1 [No. 105, 3-(5-Bromofuran-2-ylmethyl)-8-hydroxy-2-propyl-3H-benzo[4,5]thieno[2,3-d]pyrimidin-4-one] | 29.8 | 61.2 | 17.7 | 67.3 | 50.7 | 85.9 | – | – | – | – | – | –
9 | O=c1c2c(nc(CCc3ccccc3)n1CCc1cccs1)sc1c(O)cccc12 [No. 639] | – | – | – | – | – | – | 22.6 | 39.3 | 33.6 | 76.2 | 18.2 | 24.0
10 | COc1ccc(-c2nc3sc4c(c3c(=O)n2-c2ccccc2)CCCC4)cc1 [No. 22, 3-Phenyl-2-(p-methoxyphenyl)-5,6,7,8-tetrahydro-3H-benzo[4,5]thieno[2,3-d]pyrimidin-4-one] | 26 | 38.1 | -1.8 | 28.6 | 13 | 14.9 | – | – | – | – | – | –
11 | COc1cc(-c2nc3sc4c(c3c(=O)n2Cc2ccccc2)CCC(Cl)C4=O)c(Cl)c(OC)c1OC (stereo not drawn) [No. 123, 3-Benzyl-7-chloro-2-(2-chloro-3,4,5-trimethoxyphenyl)-6,7-dihydro-3H,5H-benzo[4,5]thieno[2,3-d]pyrimidine-4,8-dione] | 19.4 | 62.9 | 1.3 | 29.1 | 24.6 | 40.2 | – | – | – | – | – | –

Now from value to molecule:

Row | inhibition at 1 µM ([1]; 1 μM test compound) [%] | inhibition at 10 µM ([1]; 10 μM test compound) [%] | inhibition at 1 µM ([2]; 1 μM test compound) [%] | inhibition at 10 µM ([2]; 10 μM test compound) [%] | inhibition at 1 µM ([3]; 1 μM test compound) [%] | inhibition at 10 µM ([3]; 10 μM test compound) [%] | % Inhibition HSD1 1 μM ([1]; 1 μM test compound) [%] | % Inhibition HSD1 10 μM ([1]; 10 μM test compound) [%] | % Inhibition HSD3 1 μM ([2]; 1 μM test compound) [%] | % Inhibition HSD3 10 μM ([2]; 10 μM test compound) [%] | % Inhibition HSD2 1 μM ([3]; 1 μM test compound) [%] | % Inhibition HSD2 10 μM ([3]; 10 μM test compound) [%] | Structure (SMILES)
12 | 31.8 | 44.2 | 2.1 | 47.1 | 3.8 | 29.7 | – | – | – | – | – | – | CCSC1=C(C=O)CCc2c1sc1nc(-c3cc(OC)c(OC)c(OC)c3)n(Cc3ccccc3)c(=O)c21 [No. 6, 3-Benzyl-8-ethylsulfanyl-4-oxo-2-(3,4,5-trimethoxyphenyl)-3,4,5,6-tetrahydro-benzo[4,5]thieno[2,3-d]pyrimidine-7-carbaldehyde]
13 | 52.2 | 71 | 32.2 | 52.7 | 22.4 | 60 | – | – | – | – | – | – | COc1cc(-c2nc3sc4c(O)cccc4c3c(=O)n2Cc2ccccc2)cc(OC)c1OC [No. 53, 3-Benzyl-8-hydroxy-2-(3,4,5-trimethoxyphenyl)-3H-benzo[4,5]thieno[2,3-d]pyrimidin-4-one]
14 | 12.5 | 38.4 | -17.6 | 5.7 | 8.2 | 27 | – | – | – | – | – | – | CCOC1=C(C=O)CCc2c1sc1nc(-c3cc(OC)c(OC)c(OC)c3)n(Cc3ccccc3)c(=O)c21 [No. 7, 3-Benzyl-8-ethoxy-4-oxo-2-(3,4,5-trimethoxyphenyl)-3,4,5,6-tetrahydro-benzo[4,5]thieno[2,3-d]pyrimidine-7-carbaldehyde]
15 | 25.4 | 26.3 | 13.5 | 21 | 26.1 | 60.1 | – | – | – | – | – | – | COc1cccc(-c2nc3sc4c(O)cccc4c3c(=O)n2Cc2ccccc2)c1 [No. 83, 3-Benzyl-8-hydroxy-2-(m-methoxyphenyl)-3H-benzo[4,5]thieno[2,3-d]pyrimidin-4-one]
16 | 15.5 | 24.7 | 4 | 11.3 | 16.1 | 22 | – | – | – | – | – | – | CCCCn1c(-c2cc(OC)c(OC)c(OC)c2)nc2sc3c(O)c(Br)ccc3c2c1=O [No. 90, 7-Bromo-3-butyl-8-hydroxy-2-(3,4,5-trimethoxyphenyl)-3H-benzo[4,5]thieno[2,3-d]pyrimidin-4-one]
17 | 13.9 | 49 | 9.4 | 56.2 | 15.4 | 26.2 | – | – | – | – | – | – | COc1cc(-c2nc3sc4c(O)cccc4c3c(=O)n2Cc2ccc(Br)o2)cc(OC)c1OC [No. 122, 3-(5-Bromofuran-2-ylmethy1)-8-hydroxy-2-(3,4,5-trimethoxyphenyl)-3H-benzo[4,5]thieno[2,3-d]pyrimidin-4-one]
